Publication PMC8936434 (Frontiers in Pharmacology, 2022)
Where two headings read alike, the source gives them in different places.

What was measured:
SW1573 = assay: In vitro P-gp assay: antiproliferative activity in wild-type SW1573 cells; assay type: cell-based; details: Homo sapiens
Experimental: (§1) Compounds were tested against both cell lines in the presence or absence of 10 µM verapamil (a known P-gp and CYP3A4/5 inhibitor).

[1] = In vitro P-gp assay: antiproliferative activity in P-gp-overexpressing SW1573/P-gp cells; details: human
Experimental: as §1

SW1573/P-gp = assay: as above; details: P-gp-overexpressing cells
Experimental: as §1

HepG2 cells [2] = assay: HepG2 cell viability (MTT assay); assay type: cell-based; details: Homo sapiens, mean ± SD, 3 experiments
Experimental: Human hepatoma (HepG2) cells (European Collection of Authenticated Cell Cultures) were cultured in Dulbecco’s modified Eagle’s medium (DMEM) supplemented with 10% heat-inactivated fetal bovine serum (FBS) and 2 mM L-glutamine at 37°C in 5% CO2 humidified atmosphere.

HepG2 cells [3] = assay: LDH release from HepG2 cells; assay type: cell-based, Human
primary rat hepatocytes [4] = assay: Primary rat hepatocyte viability (trypan blue exclusion assay); assay type: cell-based; details: read-out: IC50, number of viable cells
primary rat hepatocytes [5] = assay: LDH release from primary rat hepatocytes; assay type: cell-based
primary rat hepatocytes [6] = assay: GSH depletion in isolated rat hepatocytes; assay type: cell-based; details: compared to Dox
Experimental: Gluthatione (GSH) depletion was evaluated after 24, 48, or 72 h treatment with both anthracyclines. Isolated rat hepatocytes were centrifuged at 400 g for 3 min, and the pellet was used for measuring intracellular GSH by means of the spectrophotometric method based on the conversion of the sulfhydryl reagent 5,5′-dithiobis-(2-nitrobenzoic acid) (DTNB) to the yellow derivative 5′-thio-2-nitrobenzoic acid (TNB) at 412 nm ([Fau et al., 1992]).

hERG K+ channel (Kv11.1) = hERG K+ channel (Kv11.1) (Homo sapiens, UniProt Q12809); assay: hERG (Kv11.1) current, whole-cell patch-clamp in hERG-HEK293 cells; assay type: cell-based
Sequence of hERG K+ channel (Kv11.1) (Q12809 whole entry): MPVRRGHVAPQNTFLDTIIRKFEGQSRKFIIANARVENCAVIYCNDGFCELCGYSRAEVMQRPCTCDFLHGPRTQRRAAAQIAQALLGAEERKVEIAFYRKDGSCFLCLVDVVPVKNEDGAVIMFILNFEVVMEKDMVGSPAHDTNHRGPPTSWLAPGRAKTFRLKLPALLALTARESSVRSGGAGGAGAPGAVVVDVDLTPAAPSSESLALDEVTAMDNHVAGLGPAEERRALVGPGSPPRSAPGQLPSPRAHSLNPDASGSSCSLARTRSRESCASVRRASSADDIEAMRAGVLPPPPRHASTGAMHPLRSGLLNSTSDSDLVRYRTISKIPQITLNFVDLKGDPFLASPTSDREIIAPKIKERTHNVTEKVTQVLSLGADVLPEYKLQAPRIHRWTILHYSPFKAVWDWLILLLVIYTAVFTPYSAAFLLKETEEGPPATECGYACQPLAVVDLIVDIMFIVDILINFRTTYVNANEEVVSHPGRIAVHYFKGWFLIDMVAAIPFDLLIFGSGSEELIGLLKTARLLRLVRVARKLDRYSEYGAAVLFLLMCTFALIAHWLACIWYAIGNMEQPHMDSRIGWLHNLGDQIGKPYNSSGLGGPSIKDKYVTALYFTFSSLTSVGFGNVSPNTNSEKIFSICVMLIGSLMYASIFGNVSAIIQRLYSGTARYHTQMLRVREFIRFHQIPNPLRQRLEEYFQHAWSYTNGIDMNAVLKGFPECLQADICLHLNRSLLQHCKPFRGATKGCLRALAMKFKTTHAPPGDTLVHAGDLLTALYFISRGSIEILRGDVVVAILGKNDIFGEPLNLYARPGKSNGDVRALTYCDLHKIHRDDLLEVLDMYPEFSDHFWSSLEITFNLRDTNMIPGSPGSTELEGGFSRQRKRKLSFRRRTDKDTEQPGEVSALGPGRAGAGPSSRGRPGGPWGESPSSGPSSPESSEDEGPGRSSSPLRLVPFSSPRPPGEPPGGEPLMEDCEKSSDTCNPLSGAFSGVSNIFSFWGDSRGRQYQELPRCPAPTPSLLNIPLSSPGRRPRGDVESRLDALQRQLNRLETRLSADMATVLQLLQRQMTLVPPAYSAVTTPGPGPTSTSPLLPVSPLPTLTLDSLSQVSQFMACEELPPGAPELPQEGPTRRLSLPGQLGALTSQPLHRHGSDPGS
Experimental: hERG-HEK293 cells (BPS Bioscience, San Diego, United States), expressing hERG K^+ channel (Kv11.1), were cultured in Minimal Essential Medium (MEM) supplemented with 10% fetal bovine serum, 1% non-essential amino acids, 1% Na pyruvate, 1% penicillin/streptomycin, and 400 μg/ml geneticin ([Lazzerini et al., 2021]).
The bath solution contained (in mM): 136 NaCl, 5.4 KCl, 10 HEPES, 10 D-glucose ∙ H2O, 1 CaCl2 ∙ 2 H2O, 1 MgCl2 ∙ 6 H2O, pH 7.4 with NaOH, whereas the pipette solution consisted of (in mM): 130 KCl, 10 EGTA, 10 HEPES, 5 MgATP, 1 MgCl2 ∙ 6 H2O, pH 7.2 with KOH.
Whole-cell recording was performed as previously described ([Lazzerini et al., 2021]), and a depolarizing step from a holding potential of […] was applied to elicit the Kv11.1 current. Tail current was evoked by repolarizing the cell membrane to −50 mV for 4 s.

zebrafish embryos = assay: Zebrafish embryo toxicity
Experimental: After 30 min, the eggs were collected, rinsed twice from debris using fresh embryo medium (Instant ocean), and transferred into Petri dishes containing the embryo medium.
Fertilized eggs were selected under a binocular stereomicroscope (PXS-VI, Optica) and transferred into 24-well plates. […] The embryo medium and 0.1% DMSO were used as controls. Treated embryos and controls were then incubated at 28 ± 0.5°C. Each experiment was repeated three times from three independent breedings. In each experiment, at least 3 wells with 12 embryos per treatment per concentration were used.
The zebrafish embryo toxicity assay was performed when fertilization rate was ≥90%. An assay was considered valid if the overall survival of embryos in negative controls was ≥90% until hatching.
All embryos were inspected for morphological characteristics at different developmental stages (48 and 72 hpf) as described by [Kimmel (1989)]. Lethal and teratogenic effects were recorded according to the Organisation for Economic Co-operation and Development (OECD) (236) guidelines for testing of chemicals. Mortality was determined by counting embryos with or without a visible heart beat at 72 hpf. For visual documentation of the malformations and heartbeat, embryos were imaged and recorded using a camera connected to the microscope (CKX41; Olympus, Tokyo, Japan). Each heartbeat was manually counted for 20 s and multiplied by 3 to calculate heart rate (beat/minute) ([Hoage et al., 2012]). At least three embryos per group were recorded and their heart beat counted.

recombinant human CYP3A4 = recombinant human CYP3A4 (Homo sapiens, UniProt P08684); assay: In vitro inhibition of human CYP3A4
Sequence of recombinant human CYP3A4 (P08684 whole entry): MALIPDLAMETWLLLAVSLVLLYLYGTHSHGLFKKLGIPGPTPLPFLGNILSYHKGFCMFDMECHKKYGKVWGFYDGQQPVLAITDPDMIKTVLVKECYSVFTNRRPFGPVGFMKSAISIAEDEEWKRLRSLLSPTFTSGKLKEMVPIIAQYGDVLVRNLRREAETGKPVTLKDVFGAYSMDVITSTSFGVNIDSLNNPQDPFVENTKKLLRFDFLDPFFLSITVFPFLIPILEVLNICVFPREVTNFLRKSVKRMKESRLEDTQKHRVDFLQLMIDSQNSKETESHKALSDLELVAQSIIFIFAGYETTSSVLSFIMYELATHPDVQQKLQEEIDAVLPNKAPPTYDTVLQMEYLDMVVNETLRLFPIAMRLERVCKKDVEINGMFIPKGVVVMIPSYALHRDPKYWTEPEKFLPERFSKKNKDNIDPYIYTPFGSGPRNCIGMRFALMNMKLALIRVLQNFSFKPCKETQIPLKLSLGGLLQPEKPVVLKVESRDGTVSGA
Experimental: Kinetic assays were carried out in a final volume of 100 µl containing 10 µM substrate, 2.5 nM recombinant CYP3A4, various concentrations of the tested compounds, and 20% NADPH regenerating system in 100 mM Tris–HCl (pH 7.4). Incubations took place in duplicate at 37°C in 96-multiwell plates; fluorescence was measured with a Victor2 plate reader (PerkinElmer Life Sciences, Turku, Finland). The reaction was started by adding NADPH, and fluorescence was measured at 2-min intervals for 40 min using excitation at 405 nm and emission at 460 nm.

primary rat hepatocytes [7] = assay: Lipid peroxidation (MDA) in primary rat hepatocytes; details: compared to Dox
zebrafish ABCB4 = system: zebrafish ABCB4; design: method as in earlier work; details: concentrations up to 100 µM; ref [67]; cited from earlier work
[8] = 10 µM applied at 6 hpf, read at 72 hpf

Row | SMILES | GI50 (SW1573; SW1573, 48 h) | GI50 at 48 h [1] | IC50 (HepG2 cells [2]; 24 h) | IC50 (HepG2 cells [2]; 48 h) | IC50 (HepG2 cells [2]; 72 h) | IC50 (primary rat hepatocytes [4]) | Release of LDH (primary rat hepatocytes [5]) | further results
1 | CC[C@]1(O)C[C@@H]2CN(CCc3c([nH]c4ccccc34)[C@@](C(=O)OC)(c3cc4c(cc3OC)N(C)[C@H]3[C@@](O)(C(=O)OC)[C@H](OC(C)=O)[C@]5(CC)C=CCN6CC[C@]43[C@@H]65)C2)C1 [Vinblastine, vinblastine] | 0.94 ± 0.35 nM | 16 ± 4.7 nM |  |  |  |  |  | 
2 | CC(=O)O[C@H]1C(=O)[C@@]2(C)[C@H]([C@H](OC(=O)c3ccccc3)[C@]3(O)C[C@H](OC(=O)[C@H](O)[C@@H](NC(=O)c4ccccc4)c4ccccc4)C(C)=C1C3(C)C)[C@]1(OC(C)=O)CO[C@@H]1C[C@@H]2O [Paclitaxel, paclitaxel] | 0.53 ± 0.22 nM | 298 ± 113 nM |  |  |  |  |  | 
3 | CC[C@]1(O)C[C@H]2CN(CCc3c([nH]c4ccccc34)[C@@](C(=O)OC)(c3cc4c(cc3OC)N(C=O)[C@H]3[C@@](O)(C(=O)OC)[C@H](OC(C)=O)[C@]5(CC)C=CCN6CC[C@]43[C@@H]65)C2)C1 [Vincristine, vincristine] |  |  |  |  |  |  |  | GI50 (SW1573; SW1573, w/o verapamil, 48 h exposure, mean ± SD (n = 3–5), read-out: GI50): 3.9 ± 1.5 nM; GI50 at 48 h ([1]; SW1573/P-gp cells (P-gp-overexpressing variant of SW1573)): 86 ± 15 nM
4 | COc1cccc2c1C(=O)c1c(O)c3c(c(O)c1C2=O)C[C@@](O)(C(=O)COC(=O)c1ccc(-c2ssc(=S)c2-c2ccccc2)cc1)C[C@@H]3O[C@H]1C[C@H](N)[C@H](O)[C@H](C)O1 [Sdox, 2-((2S,4S)-4-(((2R,4S,5S,6S)-4-amino-5-hydroxy-6-methyltetrahydro-2H-pyran-2-yl)oxy)-2,5,12-trihydroxy-7-methoxy-6,11-dioxo-1,2,3,4,6,11-hexahydrotetracen-2-yl)-2-oxoethyl 4-(4-phenyl-3-thioxo-3H-1,2-dithiol-5-yl)benzoate] | 873 ± 410 nM |  | 8690 ± 310 nM | 3210 ± 160 nM | 1390 ± 30 nM | 16500 ± 1010 nM | increased the release of LDH in a concentration-dependent manner | GI50 [1]: 3020 nM; Times less affected by P-gp compared with parent compound Dox (SW1573/P-gp): ca. 6.5 times; Concentration at which LDH release was increased (HepG2 cells [3]; HepG2, 24 and 48 h of treatment, only at the maximum concentration tested): 10 µM; Lowest concentration at which LDH release was increased (HepG2 cells [3]; HepG2, 72 h of treatment): 4 µM; Reduced GSH (primary rat hepatocytes [6]): lower decrease in the reduced GSH; Effect on hERG currents (hERG K+ channel (Kv11.1); up to 10 μM): did not affect; Effect on number of live embryos (zebrafish embryos; [8]): ineffective; Embryos alive (zebrafish embryos; [8]): ~90%; Developmental toxicity (zebrafish embryos; 10 µM, 72 hpf): did not display developmental toxicity; Concentration above which a precipitate was observed (zebrafish embryos; zebrafish embryo medium): > 10 µM; IC50 (recombinant human CYP3A4): 3100 nM; MDA levels (index of lipid peroxidation) (primary rat hepatocytes [7]): lower increase in the MDA levels
5 | COc1cccc2c1C(=O)c1c(O)c3c(c(O)c1C2=O)C[C@@](O)(C(=O)CO)C[C@@H]3O[C@H]1C[C@H](N)[C@H](O)[C@H](C)O1 [Dox, doxorubicin] | 70 ± 8.6 nM | 1600 nM | 6110 ± 660 nM | 460 ± 30 nM | 190 ± 10 nM | 9680 ± 890 nM | increased the release of LDH in a concentration-dependent manner | LDH release (cytotoxicity) compared with Sdox (HepG2 cells [3]; HepG2, regardless of timing of exposure (24, 48, 72 h)): cytotoxic at concentrations lower than those of Sdox; Effect on hERG currents (hERG K+ channel (Kv11.1); up to 100 μM): did not affect; Effect on zebrafish ABCB4 ATPase activity (zebrafish ABCB4): no major effect
6 | COc1cc2c(c(OC)c1OC)-c1ccc(OC)c(=O)cc1[C@@H](NC(C)=O)CC2 [Colchicine, colchicine] | 67 ± 15 nM | 2370 nM |  |  |  |  |  | 
